# Laboratory results from US20240018122A1, “PYRIDAZINYL AMINO DERIVATIVES AS ALK5 INHIBITORS” (CHIESI FARMACEUTICI S.P.A., priority 2020, published 2024).
# Biological target: human ALK5 (Homo sapiens (Human), UniProt P36897)
# Experiment: ADP-GLO Kinases assay, inhibitory activity on ALK5
# Format: biochemical
# Settings: not given
# Procedure: The enzymatic activity of compounds of the present invention was monitored measuring the formation of ADP using the ADP-GLO Kinases assay. Following the incubation of the purified enzyme, a substrate and ATP, the produced ADP was converted into ATP, which in turn was converted into light by Ultra-Glo Luciferase. The luminescent signal positively correlated with ADP amount and kinase activity. […] The assay was performed in 384-well format and was validated using a selection of reference compounds that was tested in 11 point concentration-response curve.
# Chain of human ALK5 (P36897 80-503 limits assumed): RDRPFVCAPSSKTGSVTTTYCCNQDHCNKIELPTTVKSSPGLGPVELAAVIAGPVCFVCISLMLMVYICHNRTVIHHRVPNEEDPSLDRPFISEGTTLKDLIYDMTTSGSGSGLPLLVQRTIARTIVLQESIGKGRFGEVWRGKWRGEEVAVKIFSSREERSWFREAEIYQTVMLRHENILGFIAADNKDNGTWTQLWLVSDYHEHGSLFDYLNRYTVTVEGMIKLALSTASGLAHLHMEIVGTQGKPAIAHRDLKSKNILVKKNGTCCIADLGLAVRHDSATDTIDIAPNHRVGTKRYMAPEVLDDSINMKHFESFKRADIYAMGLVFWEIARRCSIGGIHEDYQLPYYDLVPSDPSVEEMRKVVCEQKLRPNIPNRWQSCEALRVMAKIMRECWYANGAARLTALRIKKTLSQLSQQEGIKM
row,SMILES,IC50
1,"CN1CCN(CCN(C)C(=O)Oc2ccc3c(Nc4cnnc(-c5cc(Cl)ccc5F)c4)ccnc3c2)CC1 [Example 45, 4-{[6-(5-Chloro-2-Fluorophenyl)Pyridazin-4-Yl]Amino}Quinolin-7-Yl N-Methyl-N-[2-(4-Methylpiperazin-1-Yl)Ethyl]Carbamate]",1 to 5 nM

# Same assay, conditions: purified recombinant human ALK5 2.6 nM, TGFβ1 peptide substrate, 25° C, 150 min incubation, ADP-Glo detection; read-out: ALK5 IC50
row,SMILES,IC50
1,"Cc1nnc(-c2cc(Cl)ccc2F)cc1Nc1ccnc(NC(=O)CN2CCCNCC2)c1 [Example 154, N-(4-{[6-(5-Chloro-2-Fluorophenyl)-3-Methylpyridazin-4-Yl]Amino}Pyridin-2-Yl)-2-(1,4-Diazepan-1-Yl)Acetamide]",< 1 nM
2,"COC(=O)CC1CNCCN1CCC(=O)Nc1cc(Nc2cc(-c3cc(Cl)ccc3F)nnc2C)ccn1 (stereo not shown) [Example 102, Methyl 2-(1-{2-[(4-{[6-(5-Chloro-2-Fluorophenyl)-3-Methylpyridazin-4-Yl]Amino}Pyridin-2-Yl)Carbamoyl]Ethyl}Piperazin-2-Yl)Acetate]",< 1 nM
3,"Cc1nnc(-c2cc(Cl)ccc2F)cc1Nc1ccnc(NC(=O)N2CCC3(CC2)CN(C)C3)c1 [Example 149, N-(4-{[6-(5-Chloro-2-Fluorophenyl)-3-Methylpyridazin-4-Yl]Amino}Pyridin-2-Yl)-2-Methyl-2,7-Diazaspiro[3.5]Nonane-7-Carboxamide]",< 1 nM
4,"Fc1ccc(Cl)cc1-c1cc(Nc2ccnc3cc(OCCN4CCNCC4)ccc23)cnn1 [Example 9, N-[6-(5-chloro-2-fluorophenyl)pyridazin-4-yl]-7-[2-(piperazin-1-yl)ethoxy]quinolin-4-amine]",< 1 nM
5,"CC(=O)N1CCN(CCOc2ccc3c(Nc4cnnc(-c5cc(Cl)ccc5F)c4)ccnc3c2)CC1 [Example 35, 1-(4-{2-[(4-{[6-(5-Chloro-2-Fluorophenyl)Pyridazin-4-Yl]Amino}Quinolin-7-Yl)Oxy]Ethyl}Piperazin-1-Yl)Ethan-1-One]",< 1 nM
6,"CN1CCCN(CC(=O)Nc2cc(Nc3cc(-c4cc(Cl)ccc4F)nnc3CO)ccn2)CC1 [Example 178, N-(4-{[6-(5-Chloro-2-Fluorophenyl)-3-(Hydroxymethyl)Pyridazin-4-Yl]Amino}Pyridin-2-Yl)-2-(4-Methyl-1,4-Diazepan-1-Yl)Acetamide]",< 1 nM
7,"CN1CCC(Oc2ccc3c(Nc4cnnc(-c5cc(Cl)ccc5F)c4)ccnc3c2)CC1 [Example 73, N-[6-(5-Chloro-2-Fluorophenyl)Pyridazin-4-Yl]-7-[(1-Methylpiperidin-4-Yl)Oxy]Quinolin-4-Amine]",< 1 nM
8,"CS(=O)(=O)N1CCCN(CCC(=O)Nc2cc(Nc3cnnc(-c4cc(Cl)ccc4F)c3)ccn2)C1 [Example 44, N-(4-{[6-(5-Chloro-2-Fluorophenyl)Pyridazin-4-Yl]Amino}Pyridin-2-Yl)-3-(3-Methanesulfonyl-1,3-Diazinan-1-Yl)Propanamide]",< 1 nM
9,"CN1CC[C@@H](OC(=O)c2ccc3c(Nc4cnnc(-c5cc(Cl)ccc5F)c4)ccnc3c2)C1 [Example 54, (3R)-1-Methylpyrrolidin-3-Yl 4-{[6-(5-Chloro-2-Fluorophenyl)Pyridazin-4-Yl]Amino}Quinoline-7-Carboxylate]",1 to 5 nM
10,"Cc1nnc(-c2cc(Cl)ccc2F)cc1Nc1ccnc(NC(=O)CN2CCCN(C)CC2)c1 [Example 166, N-(4-{[6-(5-Chloro-2-Fluorophenyl)-3-Methylpyridazin-4-Yl]Amino}Pyridin-2-Yl)-2-(4-Methyl-1,4-Diazepan-1-Yl)Acetamide]",< 1 nM
11,"Cc1nnc(-c2cc(Cl)ccc2F)cc1Nc1ccnc(NC(=O)CCN2CC3(CN(C)C3)C2)c1 [Example 138, N-(4-{[6-(5-Chloro-2-Fluorophenyl)-3-Methylpyridazin-4-Yl]Amino}Pyridin-2-Yl)-3-{6-Methyl-2,6-Diazaspiro[3.3]Heptan-2-Yl}Propanamide]",< 1 nM
12,"CN1CCN(CCCOc2ccc3c(Nc4cnnc(-c5cc(Cl)ccc5F)c4)ccnc3c2)CC1 [Example 29, N-[6-(5-Chloro-2-Fluorophenyl)Pyridazin-4-Yl]-7-[3-(4-Methylpiperazin-1-Yl)Propoxy]Quinolin-4-Amine]",< 1 nM
